Several values for one entry are separate records, joined by “and”; a condition that tells them apart may be missing. Equal entries are not always repeated. Where two headings read alike, the source gives them in different places.
Tests used:
[1] = tested on: PC-3; experiment: Cell growth inhibition, resazurin, 48 h
[2] = tested on: MDA-MB-231; experiment: Cell growth inhibition, resazurin, 48 h; type: cell-based, human; conditions: MDA-MB-231, 48 h drug exposure
[3] = tested on: HT-29; experiment: Cell growth inhibition, resazurin, 48 h; type: cell-based, human; conditions: HT-29, 48 h drug exposure
Description: RPMI 8226 (CCL-155), HT-29 (HTB-38), and B16-F10 (CRL-6475) cells were purchased from ATCC. RPMI 8226 cells were maintained in RPMI 1640 media supplemented with 10% (v/v) FBS, 2 mM L-glutamine, 1 mM sodium pyruvate and Penicillin/Streptomycin at 100 IU/ml and 100 μg/ml, respectively. HT-29 cells were maintained in McCoys 5A supplemented with 10% (v/v) FBS, 2 mM L-glutamine, 1 mM sodium pyruvate, 1% (v/v) non-essential amino acids, 10 mM HEPES and Penicillin/Streptomycin at 100 IU/ml and 100 μg/ml, respectively. B16-F10 cells were maintained in DMEM supplemented with 10% (v/v) FBS, 2 mM L-glutamine, 10 mM HEPES and Penicillin/Streptomycin at 100 IU/ml and 100 μg/ml, respectively.
RPMI 8226 cells were seeded at 2×10^4 cells/well in 90 μl RPMI media containing 10% (v/v) FBS or 1% (v/v) FBS into 96 well black-walled, clear-bottom tissue culture plates. […] Formulae II-16, II-17 and Formula II-18 were serially diluted in media containing 1% or 10% FBS and added in triplicate to the test wells. […] The final concentration of Formula II-18 ranged from 2 μM to 630 pM.

[4] = tested on: MES-SA; experiment: Cell growth inhibition, resazurin, 48 h; conditions: for EC50: Homo sapiens, 48 h
Description: (§1) Concentrations ranging from 6.32 μM to 2 nM were tested for II-2 and II-4.

[5] = tested on: MES-SA/Dx5; experiment: Cell growth inhibition, resazurin, 48 h; conditions: for EC50: Homo sapiens, MES-SA/Dx5, 48 h
Description: as §1

[6] = tested on: U266; experiment: Cell growth inhibition, resazurin, 48 h; type: cell-based, human; conditions: U266, 48 h drug exposure
[7] = tested on: 20S proteasome chymotrypsin-like activity in RPMI 8226 cells; experiment: Chymotrypsin-like activity of 20S proteasomes in treated cells; type: cell-based, human; conditions: 1 hr, mean ± SD, n = 3
Description: RPMI 8226 (ATCC, CCL-155), the human multiple myeloma cell line, was cultured in RPMI 1640 medium supplemented with 2 mM L-glutamine, 100 units/ml penicillin, 100 μg/ml streptomycin, 1 mM sodium pyruvate and 10% heat inactivated fetal bovine serum at 37° C., 5% CO2 and 95% humidified air. […] DMSO was used as the vehicle control at a final concentration of 0.1%. Following 1 hr incubation of RMPI 8226 cells with the compounds, the cells were pelleted by centrifugation at 2,000 rpm for 10 sec at room temperature and washed 3× with ice-cold 1×Dulbecco's Phosphate-Buffered Saline (DPBS, Mediatech, Herndon, Va.). DPBS washed cells were lysed on ice for 15 min in lysis buffer (20 mM HEPES, 0.5 mM EDTA, 0.05% Triton X-100, pH 7.3) supplemented with protease inhibitor cocktail (Roche Diagnostics, Indianapolis, Ind.). Cell debris was pelleted by centrifugation at 14,000 rpm for 10 min, 4° C. and supernatants (=cell lysates) were transferred to a new tube. Protein concentration was determined by the BCA protein assay kit (Pierce Biotechnology, Rockford, Ill.). […] The total amount of protein used for each assay was 20 μg. The final concentration of Suc-LLVY-AMC and DMSO was 20 μM and 0.2%, respectively.

[8] = molecular target: T1, trypsin-like activity of rabbit muscle 20S proteasome (Oryctolagus cuniculus, UniProt G1SWK8); experiment: In vitro inhibition of 20S proteasome, Boc-LRR-AMC; type: biochemical; conditions: for inhibition of the trypsin-like activity of the 20S proteasome: under the conditions tested; for EC50: purified rabbit 20S proteasome, Boc-LRR-AMC
T1 construct: EC50 Trypsin-like; other: purified rabbit 20S proteasome, Boc-LRR-AMC; other: under the conditions tested
T1 sequence (G1SWK8 1-271): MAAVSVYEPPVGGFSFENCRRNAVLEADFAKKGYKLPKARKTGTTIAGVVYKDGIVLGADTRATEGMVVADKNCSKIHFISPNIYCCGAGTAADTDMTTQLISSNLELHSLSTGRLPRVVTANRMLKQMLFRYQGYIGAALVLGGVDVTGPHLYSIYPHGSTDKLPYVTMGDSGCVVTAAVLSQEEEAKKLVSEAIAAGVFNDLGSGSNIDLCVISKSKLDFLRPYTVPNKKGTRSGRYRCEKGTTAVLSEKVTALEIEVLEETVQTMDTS

[9] = tested on: NF-κB-mediated luciferase activity in HEK293 NF-κB/Luc cells; experiment: NF-κB-mediated luciferase reporter gene assay; type: cell-based, human; conditions: for EC50: 6 h TNF-α stimulation; for luciferase activity upon TNF-α stimulation: pretreatment of NF-κB/Luc 293 cells
Description: The HEK293 NF-κB/luciferase reporter cell line is a derivative of the human embryonic kidney cell line (ATCC; CRL-1573) and carries a luciferase reporter gene under the regulation of 5×NF-κB binding sites. […] When performing the luciferase assay, the DMEM basal medium was replaced with phenol-red free DMEM basal medium and the G418 was omitted.
For NF-κB-mediated luciferase assays, HEK293 NF-κB/luciferase cells were seeded at 1.5×10^4 cells/well in 90 μl phenol-red free DMEM complete medium into Corning 3917 white opaque-bottom tissue culture plates. For Formulae II-2, II-4, II-5A and II-18, a 400 μM starting dilution was made in 100% DMSO and this dilution was used to generate an 8-point half log dilution series. […] For formula II-20, a 2.5 mM or 8 mM starting dilution was made in 100% DMSO and the final test concentrations ranged from 6.3 μM to 2.0 nM or 20 μM to 6.3 nM respectively. The plates were returned to the incubator for 1 hour. After 1 hr pretreatment, 10 μl of a 50 ng/ml TNF-α solution, prepared in the phenol-red free DMEM medium was added, and the plates were incubated for an additional 6 hours.
At the end of the TNF-α stimulation, 100 μl of Steady Lite HTS luciferase reagent (Packard Bioscience) was added to each well and the plates were left undisturbed for 10 min at room temperature before measuring the luciferase activity. The relative luciferase units (RLU) were measured by using a Fusion microplate fluorometer (Packard Bioscience).
NF-κB inducible luciferase activity was measured at 6 hours.

[10] = Homo sapiens, HEK293, 1 h pretreatment, read-out: EC50

Row | Structure (SMILES) | EC50 ([6]; Homo sapiens, U-266, 48 h) | % inhibition of the chymotrypsin-like activity of 20S proteasomes in RPMI 8226 cell lysates ([7]; 1 nM) | % inhibition of the chymotrypsin-like activity of 20S proteasomes in RPMI 8226 cell lysates ([7]; 5 nM) | % inhibition of the chymotrypsin-like activity of 20S proteasomes in RPMI 8226 cell lysates ([7]; 10 nM) | % inhibition of the chymotrypsin-like activity of 20S proteasomes in RPMI 8226 cell lysates ([7]; 50 nM) | % inhibition of the chymotrypsin-like activity of 20S proteasomes in RPMI 8226 cell lysates ([7]; 100 nM) | inhibition of the trypsin-like activity of the 20S proteasome [8] | EC50 [9, 10] | luciferase activity upon TNF-α stimulation [9] | % inhibition of the chymotrypsin-like activity of 20S proteasomes in RPMI 8226 cell lysates ([7]; 500 nM) | % inhibition of the chymotrypsin-like activity of 20S proteasomes in RPMI 8226 cell lysates ([7]; 1,000 nM) | % inhibition of the chymotrypsin-like activity of 20S proteasomes in RPMI 8226 cell lysates ([7]; 10,000 nM) | also measured
1 | C[C@@]12OC(=O)[C@]1([C@@H](O)[C@@H]1C=CCCC1)NC(=O)[C@@H]2CCCl [Formula II-16, Salinosporamide A] | 4.7 ± 0.7 nM | 30 ± 7% | 85±7% | 94 ± 3% | 97 ± 0% | 98 ± 1% | able to inhibit the trypsin-like activity | ~7 nM | dose-dependent decrease of luciferase activity |  |  |  | % cytotoxicity ([1]; PC-3): 88% and 89%; EC50 ([1]; PC-3, 48 h drug exposure): 64 ± 26 nM; EC50 ([2]; Homo sapiens, MDA-MB-231, 48 h): 67 nM; EC50 [2]: 87 ± 40 nM; EC50 [3]: 40 ± 26 nM; EC50 ([3]; Homo sapiens, HT-29, 48 h): 47 nM; % cytotoxicity [4]: 94 ± 1%; EC50 [4]: 20 ± 5 nM; EC50 [5]: 23 ± 1 nM; % cytotoxicity ([5]; MES-SA/Dx5): 92 ± 2%
2 | CC[C@H]1C(=O)N[C@@]2([C@@H](O)[C@@H]3C=CCCC3)C(=O)O[C@@]12C [Formula II-17] |  | 6 ± 6% | 10 ± 5% | 6 ± 6% | 26 ± 5% | 30±4% | able to inhibit the trypsin-like activity | 960 ± 210 nM |  | 39 ± 3% | 46 ± 4% | 65 ± 5% | EC50 ([1]; Homo sapiens, PC-3, 48 h): > 20000 nM; EC50 ([2]; Homo sapiens, read-out: EC50): 5900 ± 601 nM; EC50 ([3]; Homo sapiens, read-out: EC50): > 20000 nM; EC50 ([4]; 48 h drug exposure): 9230 nM; EC50 ([5]; MES-SA/Dx5, 48 h drug exposure): 9450 nM
3 | C[C@H]1C(=O)N[C@@]2([C@@H](O)[C@@H]3C=CCCC3)C(=O)O[C@@]12C [Formula II-20] | 310 nM | 3 ± 10% | 31 ± 9% | 37 ± 3% | 64 ± 3% | 66±3% | able to inhibit the trypsin-like activity |  | dose-dependent decrease of luciferase activity | 71 ± 2% | 73 ± 2% | 87 ± 4% | EC50 [6]: 442 nM; EC50 [8]: 321 nM; EC50 ([8]; listed as II-20): 321 nM; EC50 ([9]; 1 h pretreatment): 849 ± 225 nM

Reference: patent US7572606B1 (Nereus Pharmaceuticals, Inc., priority 2005, dated 2009)
